One assay relates to human cancer cell lines. As to the kind of experiment: Cell proliferation, viable cell counts by Trypan blue exclusion. In kind it is cell-based. Conditions: increasing concentrations; cell counts relative to DMSO, representative counts at 48 hours (FIG. 2); compared with SMPN. The procedure: The effect of increasing concentrations of Formula (I) on the proliferation of human cancer cells was examined in vitro. […] Data in FIG. 2 are shown as the decrease in cell counts relative to the DMSO (vehicle) control.
Method: Cells were plated in 24 well plates and exposed to increasing concentrations of Formula (I). DMSO was used as a vehicle. After 24, 48 and 72 hours of exposure, cells were detached, and viable cells were counted by Trypan blue exclusion (representative counts at 48 hours shown).

Assay [1] concerns cancer cells. As to the kind of experiment: Glycolysis in cells, 3H2O production from 5-[3H]glucose. It is filed as cell-based. The conditions noted are these: two independently run experiments (FIG. 4A, 4B). The text has this: The effect of Formula (I) on the glycolytic pathway was examined to determine the ability of this inhibitor to decrease glycolysis secondary to its effect on PFKFB4-driven F26BP production. PFKFB4 produces F26BP which activates a rate-limiting enzyme of the glycolytic pathway, […] (PFK-1). […] Data in FIG. 4A and FIG. 4B are shown as the production of ^3H2O by Formula (I) relative to DMSO and normalized to protein concentration.
Method: To examine glycolysis, cells growing in 6-well plates were incubated in 500 μl of complete medium containing 1 μCi of […] per well for 60 min in 5% CO2 at 37° C. The medium was then collected and centrifuged to pellet any suspended cells. […] The amounts of ^3H2O that had diffused into the surrounding H2O was measured on a Tri-Carb 2910 liquid scintillation analyzer (Perkin Elmer) and compared with ^3H2O and 5-[^3H]glucose standards. Protein concentration was determined using the BCA assay and counts were normalized to protein concentration (previously described in CHESNEY et al., “Fructose-2,6-bisphosphate synthesis by 6-phosphofructo-2-kinase/fructose-2,6-bisphosphatase 4 (PFKFB4) is required for the glycolytic response to hypoxia and tumor growth” Oncotarget (2014) Vol. 5, No. 16, pp. 6670-6686, which is herein incorporated by reference in its entirety).

For assay [2], the system named is cancer cells. Briefly: Intracellular ATP, bioluminescence assay. In kind it is cell-based. Conditions: two independently run experiments (FIG. 5A, 5B). On the procedure:
The effect of Formula (I) on the production of ATP was examined as a measure of its effect on energy production by the glycolytic pathway.
To measure ATP, cells were washed (while still adherent) with cold PBS, lysed with Passive Lysis Buffer (Molecular Probes, Invitrogen) added directly to the plates, and immediately harvested by scraping. The lysates were flash frozen (to −80° C.) and thawed (to 37° C.) once to accomplish complete lysis and then centrifuged to clear the lysates. Intracellular ATP levels were determined using a bioluminescence assay (Molecular Probes), utilizing luciferase and its substrate, D-luciferin and ATP values were calculated using an ATP standard curve. The ATP concentration was normalized to protein concentration that was estimated using the BCA assay.

In assay [3] the test system is subcutaneous Lewis lung carcinoma tumors. Briefly: Tumor glucose uptake in vivo by FDG-PET. Details: species or system C57BL/6 mice. The conditions noted are these: 40 mg/kg PO x1, PET 60 minutes after dose, versus vehicle (FIG. 9). The procedure: The efficacy of Formula (I) to decrease tumor glucose uptake was examined by positron emission tomography (PET) following ^18F-fluoro-2-deoxy-glucose (FDG) injection. […] Method: FDG-PET was conducted on tumor-bearing mice to determine acute effects of Formula (I) on glucose uptake. C57BL/6 mice (Charles River) with subcutaneous Lewis lung carcinoma tumors were injected intraperitoneally with 100 μCi of ^18F-fluoro-2-deoxy-glucose under isoflurane anesthesia and subjected to a 15-minute static scan 45 minutes after tracer injection at baseline. Twenty-four hours later, the same animals were administered vehicle (DMSO) or Formula (I) (in DMSO, 40 mg/kg, PO×1), and, after 60 minutes, FDG uptake determined by PET scan. Tumor/cerebellum ROI (regions of interest) were quantified, representative sagittal cuts from mice are shown with arrows showing the tumors on the animals. (* signifies statistical significance).

The target in assay [4] is recombinant human PFKFB4 protein (Homo sapiens, UniProt Q16877). As to the kind of experiment: ADP-Glo kinase assay of recombinant PFKFB4. Conditions: decrease in luminescence relative to DMSO (FIG. 1). It is filed as biochemical. On the procedure:
The efficacy of the compound Formula (I) in inhibiting the activity of the PFKFB4 enzyme was tested by examination of the effect of Formula (I) on the kinase activity of recombinant PFKFB4 enzyme in the ADP-Glo assay.
The efficacy of Formula (I) in inhibition of the kinase activity of the PFKFB4 enzyme was examined by exposing recombinant human PFKFB4 protein to Formula (I) in the ADP-Glo kinase assay (Promega) which measures ADP formed through a kinase reaction. Briefly, recombinant protein, ATP, substrate and Formula (I) were incubated together for the kinase reaction followed by the addition of ADP-Glo reagent, used to terminate the kinase reaction. Lastly, a kinase detection reagent was added to convert the newly formed ADP to ATP which was measured by a luciferase reaction. Data are shown in FIG. 1 as the decrease in luminescence caused by Formula (I) relative to DMSO. Decrease in Cell Proliferation by Formula (I) (Also Referred to as FBR1-12): […]
A general note: ADP-Glo first removes unused ATP, then detects ADP through luciferase.

The test system of assay [5] is cancer cells. Briefly: Intracellular fructose-2,6-bisphosphate (F26BP) in cells. In kind it is cell-based. Conditions: increasing concentrations; two independently run experiments (FIG. 3A, 3B). The procedure:
The ability of Formula (I) to inhibit the activity of the PFKFB4 enzyme in cells was measured by examining the effect of the inhibitor on the levels of the product of the PFKFB4 enzyme, fructose-2,6-bisphosphate (F26BP). […] Data in FIG. 3 are shown as the concentration of intracellular F26BP normalized to cellular protein concentration.
In order to measure F26BP, cells were exposed to increasing concentrations of Formula (I) and were harvested, washed with PBS, lysed in NaOH/Tris acetate by heating at 80° C. and lysates neutralized to pH 7.2. F26BP content was measured using a coupled enzyme reaction following the method of Van Schaftingen (VAN SCHAFTINGEN et al, “A kinetic study of pyrophosphate: fructose-6-phosphate phosphotransferase from potato tubers. Application to a microassay of fructose 2,6-bisphosphate” Eur J Biochem. (1982) Vol. 129, No. 1, pp. 191-195), which is herein incorporated by reference in its entirety. The F26BP concentration was normalized to total cellular protein measured by the bicinchoninic acid assay (BCA, Thermo Scientific).

Assay [6] concerns Lewis lung carcinoma cells. Briefly: Tumor growth in vivo, syngeneic Lewis lung carcinoma model. More on the design: species or system C57BL/6 mice. The conditions noted are these: daily oral 40 mg/kg in DMSO, 9 days, established tumors ~150-200 mg (FIG. 8). From the text: The efficacy of Formula (I) in decreasing the growth of tumors in vivo was examined Mice were implanted with Lewis lung carcinoma cells and after tumors were noted, dosed daily with DMSO±Formula (I) by gavage and tumor growth followed. […] Data shown as mean±SEM for each timepoint. C57BL/6 mice (Charles River) were implanted with 1×10^6 Lewis lung carcinoma cells subcutaneously and, after tumors developed, were followed by caliper measurements daily to quantify tumor mass using the formula: tumor mass=(length×width^2)/2. When tumors were ˜150-200 mg, mice were randomized to daily oral DMSO±Formula (I) (n=10/group) at 40 mg/kg in 50 μL DMSO and tumor growth followed×9 days. (* signifies statistical significance)

Assay [7] concerns cancer cells. As to the kind of experiment: Anchorage independent growth as colonies in soft agar. In kind it is cell-based. The conditions noted are these: increasing concentrations; compared with DMSO (FIG. 6). The procedure: We examined the ability of Formula (I) to inhibit the anchorage independent growth of cancer cells in vitro as colonies in soft agar. […] Representative images are shown in FIG. 6A, and colonies formed were enumerated. The number of colonies formed in the presence of Formula (I) was compared with those formed in the presence of the vehicle, DMSO (FIG. 6B).
Cancer cells were plated in soft agar and the effects of increasing concentrations of Formula (I) on anchorage independent growth was examined Briefly, a feeder layer of 0.6% agarose (Agar Noble, Becton Dickinson) in RPMI with 10% fetal bovine serum was plated in 6 cm plates containing vehicle (DMSO) or increasing concentrations of Formula (I). 1×10^4 cells were re-suspended in 0.3% agarose in RPMI/10% serum containing DMSO or increasing concentrations of Formula (I) and plated on top of the feeder layer. Cells were allowed to grow at 37° C. in 5% CO2 and agarose-containing media with DMSO+/−Formula (I) was replenished every 5 days until colonies became visible. Colonies were stained with MTT [3-(4,5-dimethylthiazol-2-yl)-2,5-diphenyl tetrazolium bromide] and counted in four random 1 cm^2 areas per plate under 40× magnification and enumerated.

Chain of recombinant human PFKFB4 protein (Q16877 whole entry): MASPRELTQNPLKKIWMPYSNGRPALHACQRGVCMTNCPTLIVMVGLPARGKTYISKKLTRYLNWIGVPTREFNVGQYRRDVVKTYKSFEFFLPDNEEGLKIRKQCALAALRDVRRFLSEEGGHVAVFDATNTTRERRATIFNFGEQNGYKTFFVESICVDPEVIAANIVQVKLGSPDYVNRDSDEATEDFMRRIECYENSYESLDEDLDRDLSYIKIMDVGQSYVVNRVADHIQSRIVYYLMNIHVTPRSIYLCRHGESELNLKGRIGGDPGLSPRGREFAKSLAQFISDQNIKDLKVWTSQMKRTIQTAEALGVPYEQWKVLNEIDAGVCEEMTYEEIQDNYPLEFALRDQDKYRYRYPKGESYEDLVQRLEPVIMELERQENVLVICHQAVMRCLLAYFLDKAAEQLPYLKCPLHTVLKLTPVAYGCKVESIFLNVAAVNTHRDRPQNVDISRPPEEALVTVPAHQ

As for `COc1cccc2c(NCCCCCNC(=O)C(F)(F)F)ccnc12` [Formula (I), 2,2,2-trifluoro-N-(5-((8-methoxyquinolin-4-yl)amino)pentyl)acetamide], in the assay with human cancer cell lines, the “proliferation of human cancer cell lines” value is on record as “decreases the proliferation of human cancer cell lines in vitro with higher potency than SMPN”. Further, the “glycolysis, production of 3H2O relative to DMSO normalized to protein concentration” value in the assay on cancer cells [1] is “dose-dependent decrease in glycolysis in cancer cells”. Also, in the assay on cancer cells [2], the “production of ATP normalized to protein concentration” value is given as “dose-dependent decrease in the production of ATP by cancer cells”. Further, in assay [3], the “tumor FDG uptake (tumor/cerebellum ROI)” value is recorded as “caused a decrease in tumor FDG uptake compared with vehicle”. In addition, the “kinase activity of the PFKFB4 enzyme” value in assay [4] is given as “inhibited the kinase activity of the PFKFB4 enzyme”. Moreover, the “intracellular F26BP normalized to cellular protein concentration” value in the assay with cancer cells [5] is “dose-dependent decrease in F26BP in cancer cells”. Also, the “tumor growth (tumor mass)” value in assay [6] was “decreased established tumor growth in a syngeneic mouse tumor model”. Also, in the assay on cancer cells [7], the “anchorage independent growth, soft agar colonies” value was “inhibited the growth of cancer cells as soft agar colonies”.
